Measurements published in ChEMBL document CHEMBL4823254, “Tetrahydroquinoline-Capped Histone Deacetylase 6 Inhibitor SW-101 Ameliorates Pathological Phenotypes in a Charcot-Marie-Tooth Type 2A Mouse Model” (J Med Chem, 2021).
Active and inactive are the calls of the source. No cut-off for these calls is given here.

Key:
[1] = biological target: T1, Protein deacetylase HDAC6 (Mus musculus) (UniProt Q9Z2V5); assay: In vivo inhibition of HDAC6 in hMFN2-induced CMT2A transgenic mouse model assessed as increase in acetylated tubulin in distal sciatic nerve tissue at 20 mg/kg, ip qd administered for 22 weeks when treated prior with compound dissolved in PBS/PEG400/Tween80/EtOH (50/35/10/5) wt% as vehicle by Western blot analysis; assay type: functional, organism-based
T1 sequence (whole entry): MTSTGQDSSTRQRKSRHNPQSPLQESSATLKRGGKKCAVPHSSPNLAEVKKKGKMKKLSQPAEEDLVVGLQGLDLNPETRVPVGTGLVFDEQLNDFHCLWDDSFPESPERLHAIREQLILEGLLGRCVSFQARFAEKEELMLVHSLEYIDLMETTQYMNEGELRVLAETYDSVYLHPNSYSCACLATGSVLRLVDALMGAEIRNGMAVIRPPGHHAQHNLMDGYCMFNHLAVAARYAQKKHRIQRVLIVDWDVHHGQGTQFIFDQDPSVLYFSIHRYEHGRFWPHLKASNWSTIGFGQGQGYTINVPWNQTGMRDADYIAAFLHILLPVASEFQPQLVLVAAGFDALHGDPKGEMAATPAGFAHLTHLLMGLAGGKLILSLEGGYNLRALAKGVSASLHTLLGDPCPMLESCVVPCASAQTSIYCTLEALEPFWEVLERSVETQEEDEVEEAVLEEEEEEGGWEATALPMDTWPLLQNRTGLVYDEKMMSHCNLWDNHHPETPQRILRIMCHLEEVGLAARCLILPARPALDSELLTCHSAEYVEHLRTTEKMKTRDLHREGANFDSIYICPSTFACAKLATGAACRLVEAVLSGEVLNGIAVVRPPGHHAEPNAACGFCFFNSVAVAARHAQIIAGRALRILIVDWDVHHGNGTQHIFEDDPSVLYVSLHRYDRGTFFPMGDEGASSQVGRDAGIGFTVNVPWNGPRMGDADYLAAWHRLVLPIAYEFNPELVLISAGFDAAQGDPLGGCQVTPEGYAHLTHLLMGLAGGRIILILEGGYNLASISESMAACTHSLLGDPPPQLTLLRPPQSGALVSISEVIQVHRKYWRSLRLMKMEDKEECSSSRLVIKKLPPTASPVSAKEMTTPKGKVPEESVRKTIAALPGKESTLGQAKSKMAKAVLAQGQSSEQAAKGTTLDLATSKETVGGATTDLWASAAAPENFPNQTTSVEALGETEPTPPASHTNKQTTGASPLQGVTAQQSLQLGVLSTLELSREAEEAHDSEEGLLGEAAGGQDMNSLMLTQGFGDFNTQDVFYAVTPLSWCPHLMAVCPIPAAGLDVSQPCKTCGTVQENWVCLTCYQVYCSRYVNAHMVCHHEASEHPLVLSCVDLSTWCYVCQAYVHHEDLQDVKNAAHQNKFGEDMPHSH

[2] = biological target: T2, Protein deacetylase HDAC6 (Homo sapiens, UniProt Q9UBN7)
T2 sequence (Q9UBN7 whole entry): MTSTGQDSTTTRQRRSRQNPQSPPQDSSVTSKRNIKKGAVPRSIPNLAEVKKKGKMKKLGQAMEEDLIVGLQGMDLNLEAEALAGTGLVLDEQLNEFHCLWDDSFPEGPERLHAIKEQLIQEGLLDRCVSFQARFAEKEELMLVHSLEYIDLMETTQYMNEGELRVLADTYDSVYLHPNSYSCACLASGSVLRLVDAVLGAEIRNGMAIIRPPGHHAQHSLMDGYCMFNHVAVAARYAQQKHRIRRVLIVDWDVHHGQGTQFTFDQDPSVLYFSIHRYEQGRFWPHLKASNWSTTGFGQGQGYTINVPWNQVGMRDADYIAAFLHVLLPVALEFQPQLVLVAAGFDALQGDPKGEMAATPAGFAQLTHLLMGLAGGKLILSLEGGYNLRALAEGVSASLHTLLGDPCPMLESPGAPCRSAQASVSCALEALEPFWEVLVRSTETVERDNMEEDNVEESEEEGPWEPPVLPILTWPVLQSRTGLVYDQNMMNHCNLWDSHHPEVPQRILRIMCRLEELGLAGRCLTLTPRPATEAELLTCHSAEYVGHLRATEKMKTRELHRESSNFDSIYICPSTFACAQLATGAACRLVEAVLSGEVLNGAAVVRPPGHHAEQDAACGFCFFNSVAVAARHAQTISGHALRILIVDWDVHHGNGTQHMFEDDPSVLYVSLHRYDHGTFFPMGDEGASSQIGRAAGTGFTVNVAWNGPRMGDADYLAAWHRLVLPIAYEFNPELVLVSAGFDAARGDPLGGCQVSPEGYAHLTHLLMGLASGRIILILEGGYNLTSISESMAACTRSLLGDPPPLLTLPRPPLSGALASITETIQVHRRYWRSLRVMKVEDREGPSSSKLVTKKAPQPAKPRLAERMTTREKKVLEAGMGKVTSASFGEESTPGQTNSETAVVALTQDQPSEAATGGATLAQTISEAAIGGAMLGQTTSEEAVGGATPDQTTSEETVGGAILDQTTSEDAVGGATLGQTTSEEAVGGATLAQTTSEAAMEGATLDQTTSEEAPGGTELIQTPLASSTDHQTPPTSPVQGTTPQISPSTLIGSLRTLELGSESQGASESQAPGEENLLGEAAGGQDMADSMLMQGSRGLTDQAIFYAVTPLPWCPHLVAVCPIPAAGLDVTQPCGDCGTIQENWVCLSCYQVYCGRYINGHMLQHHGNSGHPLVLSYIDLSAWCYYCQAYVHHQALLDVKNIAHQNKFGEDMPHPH
Description: Inhibition of recombinant human HDAC6 using Ac-GAK(Ac)-AMC as substrate preincubated for 10 mins followed by substrate addition and measured after 30 mins by fluorescence-based assay

Histone deacetylase 3 = Histone deacetylase 3 (Homo sapiens, UniProt O15379); assay: Inhibition of recombinant human HDAC3 using Ac-GAK(Ac)-AMC as substrate preincubated for 10 mins followed by substrate addition and measured after 30 mins by fluorescence-based assay
Chain of Histone deacetylase 3 (O15379 whole entry): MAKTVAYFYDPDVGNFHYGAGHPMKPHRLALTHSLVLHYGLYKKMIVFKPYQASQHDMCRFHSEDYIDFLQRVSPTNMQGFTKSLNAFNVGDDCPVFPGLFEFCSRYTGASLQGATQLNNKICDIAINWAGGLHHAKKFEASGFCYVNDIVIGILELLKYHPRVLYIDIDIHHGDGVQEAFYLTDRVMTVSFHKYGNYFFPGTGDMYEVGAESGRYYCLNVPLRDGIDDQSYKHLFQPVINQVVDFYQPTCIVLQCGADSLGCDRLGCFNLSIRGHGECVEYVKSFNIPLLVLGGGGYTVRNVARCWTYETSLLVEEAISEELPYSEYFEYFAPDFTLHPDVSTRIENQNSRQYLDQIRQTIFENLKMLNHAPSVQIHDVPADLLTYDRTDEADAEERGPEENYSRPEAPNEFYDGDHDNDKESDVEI

Histone deacetylase 4 = Histone deacetylase 4 (Homo sapiens, UniProt P56524); assay: Inhibition of recombinant human HDAC4 using Boc-Lys(TFA)-AMC as substrate preincubated for 10 mins followed by substrate addition and measured after 30 mins by fluorescence-based assay
Chain of Histone deacetylase 4 (P56524 whole entry): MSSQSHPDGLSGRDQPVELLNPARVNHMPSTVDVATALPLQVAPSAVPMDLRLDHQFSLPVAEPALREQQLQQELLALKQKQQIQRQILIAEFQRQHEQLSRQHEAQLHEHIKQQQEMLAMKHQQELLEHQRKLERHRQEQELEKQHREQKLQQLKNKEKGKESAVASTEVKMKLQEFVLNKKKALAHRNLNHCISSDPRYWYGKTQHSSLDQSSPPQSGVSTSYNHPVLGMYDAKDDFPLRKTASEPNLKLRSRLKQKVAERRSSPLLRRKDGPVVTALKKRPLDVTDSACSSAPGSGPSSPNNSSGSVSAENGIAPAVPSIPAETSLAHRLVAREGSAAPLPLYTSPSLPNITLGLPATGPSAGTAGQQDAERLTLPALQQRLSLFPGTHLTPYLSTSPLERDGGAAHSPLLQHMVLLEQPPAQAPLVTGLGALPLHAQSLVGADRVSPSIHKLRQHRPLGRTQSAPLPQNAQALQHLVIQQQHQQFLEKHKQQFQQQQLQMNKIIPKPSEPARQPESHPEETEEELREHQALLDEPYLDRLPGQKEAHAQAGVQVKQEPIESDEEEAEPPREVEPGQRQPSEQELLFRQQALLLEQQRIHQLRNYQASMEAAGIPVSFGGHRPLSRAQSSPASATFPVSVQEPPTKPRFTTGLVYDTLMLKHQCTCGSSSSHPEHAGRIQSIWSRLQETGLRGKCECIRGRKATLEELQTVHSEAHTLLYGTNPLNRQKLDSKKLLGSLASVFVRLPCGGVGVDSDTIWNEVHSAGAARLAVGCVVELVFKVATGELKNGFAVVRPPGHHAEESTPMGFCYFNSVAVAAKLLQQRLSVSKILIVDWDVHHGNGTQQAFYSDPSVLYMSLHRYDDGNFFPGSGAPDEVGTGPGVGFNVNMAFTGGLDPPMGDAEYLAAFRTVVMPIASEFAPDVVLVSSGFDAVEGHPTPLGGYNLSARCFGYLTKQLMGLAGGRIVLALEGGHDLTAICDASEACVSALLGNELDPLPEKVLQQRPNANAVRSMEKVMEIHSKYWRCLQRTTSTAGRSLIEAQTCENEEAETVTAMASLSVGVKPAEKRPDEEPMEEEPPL

Histone deacetylase 1 = Histone deacetylase 1 (Homo sapiens, UniProt Q13547)
Chain of Histone deacetylase 1 (Q13547 whole entry): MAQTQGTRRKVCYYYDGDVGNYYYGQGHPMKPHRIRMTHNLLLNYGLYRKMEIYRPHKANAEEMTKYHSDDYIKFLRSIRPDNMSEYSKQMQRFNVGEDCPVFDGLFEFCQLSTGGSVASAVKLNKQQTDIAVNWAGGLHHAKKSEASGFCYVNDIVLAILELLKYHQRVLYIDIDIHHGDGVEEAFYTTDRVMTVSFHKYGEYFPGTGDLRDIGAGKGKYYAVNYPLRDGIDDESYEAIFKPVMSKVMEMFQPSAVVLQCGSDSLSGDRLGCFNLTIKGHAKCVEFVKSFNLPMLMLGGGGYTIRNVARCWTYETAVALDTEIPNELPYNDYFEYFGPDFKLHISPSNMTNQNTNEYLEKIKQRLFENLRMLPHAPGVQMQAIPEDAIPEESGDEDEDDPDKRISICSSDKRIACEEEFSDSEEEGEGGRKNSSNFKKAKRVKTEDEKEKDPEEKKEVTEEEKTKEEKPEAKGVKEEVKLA
Description: Inhibition of Nanoluc-fused HDAC1 (unknown origin) expressed in HEK293 cells incubated for 2 hrs by NANOBRET assay

[3] = biological target: T2, Protein deacetylase HDAC6; assay: Inhibition of HDAC6 in human RPMI-8226 cells assessed as increase in tubulin acetylation incubated for 6 hrs by Western blot analysis; assay type: cell-based
[4] = Tmax in C57BL/6J mouse plasma at 15 mg/kg, ip; assay type: ADME, organism-based

inhibition [1]: inactive | IC50 [2]: 0.7 nM | IC50 (Histone deacetylase 3): 235 nM | IC50 (Histone deacetylase 4): 454 nM | IC50 (Histone deacetylase 1): 4830 nM | EC50 [3]: 140 nM | Tmax [4]: 4.8 min
Compound: NC(=O)c1ccc2c(c1)CCCN2Cc1ccc(C(=O)NO)cc1
